The target in series [1] is T1, Albumin (Bos taurus, UniProt P02769). Put plainly: Binding affinity to bovine serum albumin assessed as binding constant by fluorescence based Stern-Volmer plot analysis. As to conditions: cattle.
Series [2] has as its target T1, Albumin. In words: Binding affinity to bovine serum albumin assessed as Stem-Volmer quenching constant by fluorescence based Stern-Volmer plot analysis. The conditions noted are these: cattle.
Series [3] in a line: Drug uptake in human MCF7 cells at 10 uM incubated for 2 hrs by fluorescence based assay. The class given is ADME, cell-based. As to conditions: mcf7, 2 h.
A short description of series [4]: Drug uptake in human MCF7 cells at 10 uM incubated for 24 hrs by fluorescence based assay. The class given is ADME, cell-based. The conditions noted are these: mcf7, 24 h.

T1 sequence (P02769 whole entry): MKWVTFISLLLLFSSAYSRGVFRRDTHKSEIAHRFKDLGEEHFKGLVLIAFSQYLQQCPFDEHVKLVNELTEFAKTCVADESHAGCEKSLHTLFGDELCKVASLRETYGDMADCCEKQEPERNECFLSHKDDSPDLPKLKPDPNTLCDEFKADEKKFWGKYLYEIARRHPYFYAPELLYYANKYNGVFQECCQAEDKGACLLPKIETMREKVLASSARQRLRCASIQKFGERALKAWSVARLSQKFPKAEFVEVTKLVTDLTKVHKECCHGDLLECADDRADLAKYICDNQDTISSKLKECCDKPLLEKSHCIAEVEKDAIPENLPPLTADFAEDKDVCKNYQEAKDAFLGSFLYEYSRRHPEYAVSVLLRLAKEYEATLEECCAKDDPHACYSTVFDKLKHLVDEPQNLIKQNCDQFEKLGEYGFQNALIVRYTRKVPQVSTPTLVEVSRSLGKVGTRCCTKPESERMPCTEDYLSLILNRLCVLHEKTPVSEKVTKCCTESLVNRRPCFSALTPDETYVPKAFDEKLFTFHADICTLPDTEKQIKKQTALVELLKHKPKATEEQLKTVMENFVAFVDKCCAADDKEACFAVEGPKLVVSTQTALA

For `CCCCCCCCCCCCCCCC(=O)NC1=Cc2nc1c(-c1ccccc1)c1ccc([nH]1)c(-c1ccccc1)c1nc(c(-c3ccccc3)c3ccc([nH]3)c2-c2ccccc2)C=C1`, the Ka on Albumin [1] was 1.98 10^4L/mol. Moreover, the KSV on Albumin [2] is on record as 3.03 10^4L/mol. For the same compound, the Drug uptake in series [3] and in series [4] was 1.7 10^-2microM throughout.

Consider `CCCCCCCCCCCCCCCC(=O)Nc1ccc(-c2c3nc(c(-c4ccccc4)c4ccc([nH]4)c(-c4ccccc4)c4nc(c(-c5ccccc5)c5ccc2[nH]5)C=C4)C=C3)cc1`, for which the Ka at Albumin [1] was 3.12 10^4L/mol. The KSV on Albumin [2] is on record as 4.09 10^4L/mol. Moreover, the Drug uptake is given as 3 10^-2microM in series [3] and 4.4 10^-2microM in series [4].

Regarding `CC(=O)NC1=Cc2nc1c(-c1ccccc1)c1ccc([nH]1)c(-c1ccccc1)c1nc(c(-c3ccccc3)c3ccc([nH]3)c2-c2ccccc2)C=C1`, the Ka on Albumin [1] is 2.86 10^4L/mol. Moreover, on Albumin [2], the KSV is given as 4.33 10^4L/mol. The Drug uptake is on record as 3.3 10^-2microM in series [3] and 4.3 10^-2microM in series [4].

As to `CC(=O)Nc1ccc(-c2c3nc(c(-c4ccccc4)c4ccc([nH]4)c(-c4ccccc4)c4nc(c(-c5ccccc5)c5ccc2[nH]5)C=C4)C=C3)cc1`, at Albumin [1], the Ka is recorded as 3.84 10^4L/mol. For the same compound, at Albumin [2], the KSV is listed as 4.96 10^4L/mol. Further, the Drug uptake in series [3] and in series [4] was 5.8 10^-2microM throughout.

The values above are taken from ChEMBL document CHEMBL4699453, “Correlations between functional porphyrin positions and accumulation in cancer cells” (Bioorg Med Chem Lett, 2020).
